Data published in PMC12587545, “Noncytotoxic polymyxin derivatives enhance antibiotic action against multidrug-resistant Gram-negative bacteria” (Antimicrobial Agents and Chemotherapy, 2025).
“And” between values parts separate entries of the source, which are not always exact repeats. Equal values may be shown once. Read-outs that look alike come from different tables or passages of the source.

Columns and labels:
P. aeruginosa = assay: Checkerboard assay (antibiotic potentiation); type: cell-based, Pseudomonas aeruginosa
A. baumannii = assay: Checkerboard assay (antibiotic potentiation); type: cell-based, Acinetobacter baumannii; settings: for MICantibiotic: antibiotic alone
[1] = P. aeruginosa 262-101856, antibiotic + compound 1
[2] = P. aeruginosa 264-105354, antibiotic + compound 1
[3] = P. aeruginosa PAO1, 0% FBS, zoliflodacin + compound 1
[4] = P. aeruginosa PAO1, [Mg2+] 0.4–0.5 mM, zoliflodacin + compound 1
[5] = P. aeruginosa PAO1, antibiotic + compound 1
[6] = A. baumannii 110193, antibiotic + compound 1

For `C[C@@H]1CN2c3c(cc4c(N5C(=O)OC[C@@H]5C)noc4c3F)CC3(C(=O)NC(=O)NC3=O)[C@H]2[C@H](C)O1` [Zoliflodacin], the Interpretation (P. aeruginosa; P. aeruginosa 259-96916, antibiotic + compound 1) was “Synergy (FIC indices of ≤0.5 is synergistic)”, the “MICantibiotic + compound” value (P. aeruginosa; P. aeruginosa 259-96916, antibiotic MIC with 8 µg/mL (5 µM) compound 1) was 0.125 µg/mL and the MICantibiotic (P. aeruginosa; P. aeruginosa 259-96916, antibiotic alone) was 128 µg/mL. For the same molecule, the Potentiation (P. aeruginosa; P. aeruginosa 259-96916, of antibiotic by 8 µg/mL (5 µM) compound 1) was ≥1024-fold, the FIC index (P. aeruginosa; [1]) was “x < 0.078” and the Interpretation (P. aeruginosa; [1]) was “Synergy (FIC indices of ≤0.5 is synergistic)”. The “MICantibiotic + compound” value (P. aeruginosa; P. aeruginosa 262-101856, antibiotic MIC with 8 µg/mL (5 µM) compound 1) was 2 µg/mL, the MICantibiotic (P. aeruginosa; P. aeruginosa 262-101856, antibiotic alone) was greater than 128 µg/mL and the Potentiation (P. aeruginosa; P. aeruginosa 262-101856, of antibiotic by 8 µg/mL (5 µM) compound 1) was ≥128-fold. For the same molecule, the FIC index (P. aeruginosa; [2]) was “x < 0.066”, the Interpretation (P. aeruginosa; [2]) was “Synergy (FIC indices of ≤0.5 is synergistic)” and the “MICantibiotic + compound” value (P. aeruginosa; P. aeruginosa 264-105354, antibiotic MIC with 8 µg/mL (5 µM) compound 1) was 0.5 µg/mL. The MICantibiotic (P. aeruginosa; P. aeruginosa 264-105354, antibiotic alone) was greater than 128 µg/mL, the Potentiation (P. aeruginosa; P. aeruginosa 264-105354, of antibiotic by 8 µg/mL (5 µM) compound 1) was ≥512-fold and the “MICantibiotic + compound” value (P. aeruginosa; P. aeruginosa 101243 (colistin-resistant), antibiotic MIC with 8 µg/mL (5 µM) compound 1) was greater than 128 µg/mL. The MICantibiotic (P. aeruginosa; P. aeruginosa 101243 (colistin-resistant), antibiotic alone) was greater than 128 µg/mL, the “MICantibiotic + compound” value (P. aeruginosa; P. aeruginosa 114228 (colistin-resistant), antibiotic MIC with 8 µg/mL (5 µM) compound 1) was greater than 128 µg/mL and the MICantibiotic (P. aeruginosa; P. aeruginosa 114228 (colistin-resistant), antibiotic alone) was greater than 128 µg/mL. The Potentiation (P. aeruginosa; P. aeruginosa PAO1, 0% FBS, of zoliflodacin by 8 µg/mL (5 µM) compound 1) was ≥32-fold, the FIC index (P. aeruginosa; [3]) was “x < 0.125” and the Interpretation (P. aeruginosa; [3]) was “Synergy (FIC indices of ≤0.5 is synergistic)”. For the same molecule, the “MICantibiotic + compound” value (P. aeruginosa; P. aeruginosa PAO1, 0% FBS, zoliflodacin MIC with 8 µg/mL (5 µM) compound 1) was 8 µg/mL, the MICantibiotic (P. aeruginosa; P. aeruginosa PAO1, 0% FBS, zoliflodacin alone) was greater than 128 µg/mL and the Potentiation (P. aeruginosa; P. aeruginosa PAO1, 10% FBS, of zoliflodacin by 8 µg/mL (5 µM) compound 1) was 64 fold. The Interpretation (P. aeruginosa; P. aeruginosa PAO1, 10% FBS, zoliflodacin + compound 1) was “Synergy (FIC indices of ≤0.5 is synergistic)”, the “MICantibiotic + compound” value (P. aeruginosa; P. aeruginosa PAO1, 10% FBS, zoliflodacin MIC with 8 µg/mL (5 µM) compound 1) was 8 µg/mL and the MICantibiotic (P. aeruginosa; P. aeruginosa PAO1, 10% FBS, zoliflodacin alone) was 512 µg/mL. For the same molecule, the Potentiation (P. aeruginosa; P. aeruginosa PAO1, 25% FBS, of zoliflodacin by 8 µg/mL (5 µM) compound 1) was 1 fold, the Interpretation (P. aeruginosa; P. aeruginosa PAO1, 25% FBS, zoliflodacin + compound 1) was “Additive (0.5 < × ≤ 4 is additive)” and the “MICantibiotic + compound” value (P. aeruginosa; P. aeruginosa PAO1, 25% FBS, zoliflodacin MIC with 8 µg/mL (5 µM) compound 1) was 1024 µg/mL. The MICantibiotic (P. aeruginosa; P. aeruginosa PAO1, 25% FBS, zoliflodacin alone) was 1024 µg/mL, the Potentiation (P. aeruginosa; P. aeruginosa PAO1, 50% FBS, of zoliflodacin by 8 µg/mL (5 µM) compound 1) was 1 fold and the Interpretation (P. aeruginosa; P. aeruginosa PAO1, 50% FBS, zoliflodacin + compound 1) was “Additive (0.5 < × ≤ 4 is additive)”. For the same molecule, the “MICantibiotic + compound” value (P. aeruginosa; P. aeruginosa PAO1, 50% FBS, zoliflodacin MIC with 8 µg/mL (5 µM) compound 1) was 1024 µg/mL, the MICantibiotic (P. aeruginosa; P. aeruginosa PAO1, 50% FBS, zoliflodacin alone) was 1024 µg/mL and the Potentiation (P. aeruginosa; P. aeruginosa PAO1, [Mg2+] 25 mM, of zoliflodacin by 8 µg/mL (5 µM) compound 1) was 1 fold. For the same molecule, the Interpretation (P. aeruginosa; P. aeruginosa PAO1, [Mg2+] 25 mM, zoliflodacin + compound 1) was “Additive (0.5 < × ≤ 4 is additive)”, the “MICantibiotic + compound” value (P. aeruginosa; P. aeruginosa PAO1, [Mg2+] 25 mM, zoliflodacin MIC with 8 µg/mL (5 µM) compound 1) was 1024 µg/mL and the MICantibiotic (P. aeruginosa; P. aeruginosa PAO1, [Mg2+] 25 mM, zoliflodacin alone) was 1024 µg/mL. The Potentiation (P. aeruginosa; P. aeruginosa PAO1, [Mg2+] 0.4–0.5 mM, of zoliflodacin by 8 µg/mL (5 µM) compound 1) was ≥32-fold, the FIC index (P. aeruginosa; [4]) was “x < 0.125” and the Interpretation (P. aeruginosa; [4]) was “Synergy (FIC indices of ≤0.5 is synergistic)”. The “MICantibiotic + compound” value (P. aeruginosa; P. aeruginosa PAO1, [Mg2+] 0.4–0.5 mM, zoliflodacin MIC with 8 µg/mL (5 µM) compound 1) was 8 µg/mL, the MICantibiotic (P. aeruginosa; P. aeruginosa PAO1, [Mg2+] 0.4–0.5 mM, zoliflodacin alone) was greater than 128 µg/mL and the FIC index (P. aeruginosa; [5]) was “x < 0.125”. For the same molecule, the Interpretation (P. aeruginosa; [5]) was “Synergy (FIC indices of ≤0.5 is synergistic)”, the Interpretation (P. aeruginosa; P. aeruginosa PAO1, antibiotic + compound 3) was “Additive (0.5 < × ≤ 4 is additive)” and the “MICantibiotic + compound” value (P. aeruginosa; P. aeruginosa PAO1, antibiotic MIC with 8 µg/mL (5 µM) compound 1) was 8 µg/mL. For the same molecule, the “MICantibiotic + compound” value (P. aeruginosa; P. aeruginosa PAO1, antibiotic MIC with 8 µg/mL (5 µM) compound 3) was 128 µg/mL, the MICantibiotic (P. aeruginosa; P. aeruginosa PAO1, antibiotic alone) was 128 µg/mL and >128 µg/mL and the Potentiation (P. aeruginosa; P. aeruginosa PAO1, of antibiotic by 8 µg/mL (5 µM) compound 1) was ≥32-fold. For the same molecule, the Potentiation (P. aeruginosa; P. aeruginosa PAO1, of antibiotic by 8 µg/mL (5 µM) compound 3) was 1 fold, the “MICantibiotic + compound” value (A. baumannii) was 0.031 µg/mL and the Potentiation (A. baumannii) was ≥128-fold. For the same molecule, the Interpretation (A. baumannii; A. baumannii 92247 (colistin-resistant), antibiotic + compound 1) was “Synergy (FIC indices of ≤0.5 is synergistic)”, the “MICantibiotic + compound” value (A. baumannii; A. baumannii 92247 (colistin-resistant), antibiotic MIC with 4 µg/mL (2 µM) compound 1) was 0.25 µg/mL and the MICantibiotic (A. baumannii; A. baumannii 92247 (colistin-resistant)) was 4 µg/mL. The Potentiation (A. baumannii; A. baumannii 92247 (colistin-resistant), of antibiotic by 4 µg/mL (2 µM) compound 1) was ≥16-fold, the FIC index (A. baumannii; [6]) was 0.156 and the Interpretation (A. baumannii; [6]) was “Synergy (FIC indices of ≤0.5 is synergistic)”. The “MICantibiotic + compound” value (A. baumannii; A. baumannii 110193, antibiotic MIC with 4 µg/mL (2 µM) compound 1) was 8 µg/mL, the MICantibiotic (A. baumannii; A. baumannii 110193) was 256 µg/mL and the Potentiation (A. baumannii; A. baumannii 110193, of antibiotic by 4 µg/mL (2 µM) compound 1) was 32 fold. The Interpretation (A. baumannii; A. baumannii AB027, antibiotic + compound 1) was “Synergy (FIC indices of ≤0.5 is synergistic)”, the “MICantibiotic + compound” value (A. baumannii; A. baumannii AB027, antibiotic MIC with 4 µg/mL (2 µM) compound 1) was 0.25 µg/mL and the MICantibiotic (A. baumannii; A. baumannii AB027) was 16 µg/mL. The Potentiation (A. baumannii; A. baumannii AB027, of antibiotic by 4 µg/mL (2 µM) compound 1) was 64 fold.
